Laboratory results taken from ChEMBL document CHEMBL3885881, “DrugMatrix”.

Organism: Rattus norvegicus
Assay: DrugMatrix - Regimen: Daily Repeat
Assay type: toxicity, organism-based, Sprague-Dawley
Design: regimen Daily Repeat, gender Male, age 6-8 weeks
Conditions: in vivo, po, route oral GAVAGE, vehicle .5 % CMC; for BASOPHIL / EOSINOPHIL / ERYTHROCYTE COUNT / HEMATOCRIT / HEMOGLOBIN / LEUKOCYTE COUNT / LYMPHOCYTE / MEAN CORPUSCULAR HEMOGLOBIN / MEAN CORPUSCULAR HEMOGLOBIN CONCENTRATION / MEAN CORPUSCULAR VOLUME / MONOCYTE / NEUTROPHIL / PLATELET COUNT: tissue Blood; for ALANINE AMINOTRANSFERASE / ALBUMIN / ALKALINE PHOSPHATASE / ASPARTATE AMINOTRANSFERASE / BLOOD UREA NITROGEN / CHOLESTEROL / CREATINE PHOSPHOKINASE / CREATININE / GLUCOSE / PHOSPHORUS / POTASSIUM / SODIUM / TOTAL BILIRUBIN / TOTAL PROTEIN: tissue Plasma
[1] = 0 mg/kg, 72 h, dose level Control, time 3 day
[2] = 0 mg/kg, 120 h, dose level Control, time 5 day
[3] = 45 mg/kg, 72 h, dose level High, time 3 day
[4] = 45 mg/kg, 120 h, dose level High, time 5 day
[5] = […], 72 h, dose 1.1 mg/Kg, dose level Low, time 3 day
[6] = […], 120 h, dose 1.1 mg/Kg, dose level Low, time 5 day

COc1cc(NC(C)CCCN)c2ncccc2c1 (configuration not stated) [PRIMAQUINE]
BASOPHIL [1]: 0% | EOSINOPHIL [1]: 0% | ERYTHROCYTE COUNT [1]: 6.19 x10E6/uL | HEMATOCRIT [1]: 36.94% | HEMOGLOBIN [1]: 14.58 G/DL | LEUKOCYTE COUNT [1]: 11.54 x10E3/uL | LYMPHOCYTE [1]: 84.8% | MEAN CORPUSCULAR HEMOGLOBIN [1]: 23.58 pg | MEAN CORPUSCULAR HEMOGLOBIN CONCENTRATION [1]: 39.44 G/DL | MEAN CORPUSCULAR VOLUME [1]: 59.76 fL | MONOCYTE [1]: 1.4% | NEUTROPHIL [1]: 13.8% | PLATELET COUNT [1]: 1068.8 x10E3/uL | ALANINE AMINOTRANSFERASE [1]: 38.17 u/L | ALBUMIN [1]: 3.88 G/DL | ALKALINE PHOSPHATASE [1]: 391.33 u/L | ASPARTATE AMINOTRANSFERASE [1]: 69.83 u/L | BLOOD UREA NITROGEN [1]: 15 mg/dL | CHOLESTEROL [1]: 72.17 mg/dL | CREATINE PHOSPHOKINASE [1]: 174.33 u/L | CREATININE [1]: 0.58 mg/dL | GLUCOSE [1]: 192.67 mg/dL | PHOSPHORUS [1]: 10.52 mg/dL | POTASSIUM [1]: 6.8 MEQ/L | SODIUM [1]: 149.67 MEQ/L | TOTAL BILIRUBIN [1]: 0.78 mg/dL | TOTAL PROTEIN [1]: 6.28 G/DL | BASOPHIL [2]: 0% | EOSINOPHIL [2]: 0.17% | ERYTHROCYTE COUNT [2]: 6.72 x10E6/uL | HEMATOCRIT [2]: 40.02% | HEMOGLOBIN [2]: 15.83 G/DL | LEUKOCYTE COUNT [2]: 9.5 x10E3/uL | LYMPHOCYTE [2]: 87.17% | MEAN CORPUSCULAR HEMOGLOBIN [2]: 23.57 pg | MEAN CORPUSCULAR HEMOGLOBIN CONCENTRATION [2]: 39.62 G/DL | MEAN CORPUSCULAR VOLUME [2]: 59.55 fL | MONOCYTE [2]: 1.67% | NEUTROPHIL [2]: 11% | PLATELET COUNT [2]: 1053.67 x10E3/uL | ALANINE AMINOTRANSFERASE [2]: 26.33 u/L | ALBUMIN [2]: 4.02 G/DL | ALKALINE PHOSPHATASE [2]: 316.67 u/L | ASPARTATE AMINOTRANSFERASE [2]: 61.33 u/L | BLOOD UREA NITROGEN [2]: 18.67 mg/dL | CHOLESTEROL [2]: 65.17 mg/dL | CREATINE PHOSPHOKINASE [2]: 161.17 u/L | CREATININE [2]: 0.75 mg/dL | GLUCOSE [2]: 177.33 mg/dL | PHOSPHORUS [2]: 9.72 mg/dL | POTASSIUM [2]: 6.18 MEQ/L | SODIUM [2]: 150.5 MEQ/L | TOTAL BILIRUBIN [2]: 0.68 mg/dL | TOTAL PROTEIN [2]: 6.55 G/DL | BASOPHIL [3]: 0% | EOSINOPHIL [3]: 0.33% | ERYTHROCYTE COUNT [3]: 6.7 x10E6/uL | HEMATOCRIT [3]: 40.07% | HEMOGLOBIN [3]: 15.73 G/DL | LEUKOCYTE COUNT [3]: 10.6 x10E3/uL | LYMPHOCYTE [3]: 76.67% | MEAN CORPUSCULAR HEMOGLOBIN [3]: 23.53 pg | MEAN CORPUSCULAR HEMOGLOBIN CONCENTRATION [3]: 39.3 G/DL | MEAN CORPUSCULAR VOLUME [3]: 59.87 fL | MONOCYTE [3]: 2.67% | NEUTROPHIL [3]: 20.33% | PLATELET COUNT [3]: 1053 x10E3/uL | ALANINE AMINOTRANSFERASE [3]: 83.33 u/L | ALBUMIN [3]: 3.73 G/DL | ALKALINE PHOSPHATASE [3]: 304.67 u/L | ASPARTATE AMINOTRANSFERASE [3]: 358.33 u/L | BLOOD UREA NITROGEN [3]: 10 mg/dL | CHOLESTEROL [3]: 77.67 mg/dL | CREATINE PHOSPHOKINASE [3]: 213.33 u/L | CREATININE [3]: 0.67 mg/dL | GLUCOSE [3]: 176 mg/dL | PHOSPHORUS [3]: 11.23 mg/dL | POTASSIUM [3]: 6.27 MEQ/L | SODIUM [3]: 148.33 MEQ/L | TOTAL BILIRUBIN [3]: 0.4 mg/dL | TOTAL PROTEIN [3]: 6.03 G/DL | BASOPHIL [4]: 0% | EOSINOPHIL [4]: 0% | ERYTHROCYTE COUNT [4]: 5.75 x10E6/uL | HEMATOCRIT [4]: 35.53% | HEMOGLOBIN [4]: 14.07 G/DL | LEUKOCYTE COUNT [4]: 13.03 x10E3/uL | LYMPHOCYTE [4]: 79.67% | MEAN CORPUSCULAR HEMOGLOBIN [4]: 24.47 pg | MEAN CORPUSCULAR HEMOGLOBIN CONCENTRATION [4]: 39.6 G/DL | MEAN CORPUSCULAR VOLUME [4]: 61.83 fL | MONOCYTE [4]: 3.67% | NEUTROPHIL [4]: 16.67% | PLATELET COUNT [4]: 778.33 x10E3/uL | ALANINE AMINOTRANSFERASE [4]: 35.67 u/L | ALBUMIN [4]: 3.63 G/DL | ALKALINE PHOSPHATASE [4]: 336.33 u/L | ASPARTATE AMINOTRANSFERASE [4]: 78.67 u/L | BLOOD UREA NITROGEN [4]: 12 mg/dL | CHOLESTEROL [4]: 67.33 mg/dL | CREATINE PHOSPHOKINASE [4]: 151.67 u/L | CREATININE [4]: 0.57 mg/dL | GLUCOSE [4]: 177 mg/dL | PHOSPHORUS [4]: 10.23 mg/dL | POTASSIUM [4]: 6.03 MEQ/L | SODIUM [4]: 149 MEQ/L | TOTAL BILIRUBIN [4]: 0.47 mg/dL | TOTAL PROTEIN [4]: 5.83 G/DL | BASOPHIL [5]: 0% | EOSINOPHIL [5]: 1% | ERYTHROCYTE COUNT [5]: 5.53 x10E6/uL | HEMATOCRIT [5]: 33.77% | HEMOGLOBIN [5]: 13.73 G/DL | LEUKOCYTE COUNT [5]: 11.03 x10E3/uL | LYMPHOCYTE [5]: 85% | MEAN CORPUSCULAR HEMOGLOBIN [5]: 24.87 pg | MEAN CORPUSCULAR HEMOGLOBIN CONCENTRATION [5]: 40.77 G/DL | MEAN CORPUSCULAR VOLUME [5]: 61 fL | MONOCYTE [5]: 2% | NEUTROPHIL [5]: 12% | PLATELET COUNT [5]: 1053.67 x10E3/uL | ALANINE AMINOTRANSFERASE [5]: 32.33 u/L | ALBUMIN [5]: 3.57 G/DL | ALKALINE PHOSPHATASE [5]: 308 u/L | ASPARTATE AMINOTRANSFERASE [5]: 56.33 u/L | BLOOD UREA NITROGEN [5]: 11.67 mg/dL | CHOLESTEROL [5]: 75.33 mg/dL | CREATINE PHOSPHOKINASE [5]: 161.67 u/L | CREATININE [5]: 0.6 mg/dL | GLUCOSE [5]: 178 mg/dL | PHOSPHORUS [5]: 11.23 mg/dL | POTASSIUM [5]: 6.57 MEQ/L | SODIUM [5]: 148 MEQ/L | TOTAL BILIRUBIN [5]: 0.4 mg/dL | TOTAL PROTEIN [5]: 5.63 G/DL | BASOPHIL [6]: 0% | EOSINOPHIL [6]: 0.33% | ERYTHROCYTE COUNT [6]: 6.36 x10E6/uL | HEMATOCRIT [6]: 37.73% | HEMOGLOBIN [6]: 15.4 G/DL | LEUKOCYTE COUNT [6]: 11.63 x10E3/uL | LYMPHOCYTE [6]: 91.33% | MEAN CORPUSCULAR HEMOGLOBIN [6]: 24.37 pg | MEAN CORPUSCULAR HEMOGLOBIN CONCENTRATION [6]: 41 G/DL | MEAN CORPUSCULAR VOLUME [6]: 59.37 fL | MONOCYTE [6]: 1.33% | NEUTROPHIL [6]: 7% | PLATELET COUNT [6]: 1065 x10E3/uL | ALANINE AMINOTRANSFERASE [6]: 27 u/L | ALBUMIN [6]: 3.9 G/DL | ALKALINE PHOSPHATASE [6]: 323 u/L | ASPARTATE AMINOTRANSFERASE [6]: 65.67 u/L | BLOOD UREA NITROGEN [6]: 15.33 mg/dL | CHOLESTEROL [6]: 71 mg/dL | CREATINE PHOSPHOKINASE [6]: 141.33 u/L | CREATININE [6]: 0.6 mg/dL | GLUCOSE [6]: 169.33 mg/dL | PHOSPHORUS [6]: 10.37 mg/dL | POTASSIUM [6]: 6.4 MEQ/L | SODIUM [6]: 151.67 MEQ/L | TOTAL BILIRUBIN [6]: 0.43 mg/dL | TOTAL PROTEIN [6]: 6.23 G/DL
